Assays:
[1] = tested on: activated RAW 264.7 cells; assay: Measurement of NO production via nitrite detection (Griess) in IFN-γ and LPS activated RAW 264.7 cells; assay type: cell-based, mouse; details: for Nitrite Production / Nitrite Production as Percentage of Control: IFN-γ + LPS; for Effect on NO production, in words (Table 2): conditions of Table 2 (2 and 10 μg/ml)
Experimental: (§1) NIH/3T3 (mouse embryo fibroblast, CCRC 60008) and RAW 264.7 (mouse monocyte/macrophage, CCRC 60001) cell lines were obtained from Culture Collection and Research Center (CCRC), Taiwan. Both cell lines were cultured in Dulbecco's modified essential medium (DMEM, GIBCO BRL, Rockville, Md.) containing 1.5 g/L NaHCO3 supplemented with 10% fetal bovine serum (Hyclone, Logan, Utah) and incubated in 5% CO2 at 37° C. Cell cultures were examined for mycoplasma contamination with the fluorescent stain Hoechst 33258 (Hay et al., ATCC Quality Control Methods for Cell Lines, American Type Culture Collection, Manassas, Va., 1992, pp 23-33). All cultures described in the present example were mycoplasma-free.
Two mixtures were prepared. A mixture of collagen type I (rat tail, Sigma, St. Louis, Mo.) was dissolved in 0.1 N acetic acid to produce a 1 mg/ml collagen solution. Chitin was added to 0.1 N acetic acid until a 1 mg/ml mixture was achieved, and the mixture was sonicated for 3 minutes using a Labsonic U sonicator, (Braun Biotech International, Germany). After being autoclaved at 121° C. for 15 minutes, the chitin mixture became a slurry of fine wires. Microtiter tissue culture plates (96-well) were rinsed with Dulbecco's phosphate-buffer saline without Ca^+2 and Mg^+2 (D-PBS, GIBCO BRL). Five microliters of collagen solution or different amounts of the chitin mixture were then added to each well. The plates were then air-dried in a laminar flow hood and stored at 4° C. for up to a week.
Nitric oxide (NO) production was indirectly quantified by measuring the accumulation of nitrite (NO2^−) in the culture media using Griess reagents and sodium nitrite as a standard (Green et al., Anal. Biochem. 126:131-138, 1982; and Ignarro et al., Proc. Natl. Acad. Sci. USA 90:8103-8107, 1993). For nitrite assays, RAW 264.7 cells were subcultured in coated 96-well tissue culture plates at 1×10^5 cells/well and incubated for 24 hours. The culture media were changed to phenol red-free, serum-free DMEM containing 100 U/ml interferon-γ(IFN-γ, recombinant murine; GIBCO BRL) and 100 ng/ml lipopolysaccharide (LPS, Escherichia coli serotype 0128:B12; Sigma). The samples were then tested as described in Rollo et al., J. Leukoc. Biol. 60:397-404, 1996.
To measure the effect of chitin on NO production, cells were subcultured directly in the chitin-coated 96-well tissue culture plates. After overnight incubation, cells became adhered to the bottom of chitin-coated wells. The culture media were removed and replaced with media supplemented with IFN-γ and LPS as described above. After 48 hours incubation, […] of culture supernatants were mixed sequentially with equal volumes of 60 mM sulfanilamide (Sigma) in 3 N HCl and 4 mM N-1-naphthylethylenediamine (Sigma) and then shaken for 5 minutes at room temperature as described in Rollo et al., supra. Nitrite concentration was measured by reading the sample's absorbance at 540 nm using a microplate reader (MRX, Dynex Technologies, Inc., VA).

[2] = tested on: RAW 264.7 cells; assay: Cytotoxicity test (MTT cell growth), RAW 264.7; assay type: cell-based, mouse
Experimental: as §1
Two mixtures were prepared. […]
For chitin cytotoxicity experiment, cells were subcultured in 96-well tissue culture plates precoated with different amount of chitin or with collagen at a density of 2000 cells/well and incubated for 48 hours. […] Cytotoxicity was measured using the dye 3-(4,5-dimethylthiazol-2-yl)-2,5-diphenyl tetrazolium bromide (MTT; Merck Co., Germany) and following the methods described in Mosmann, J. Immunol. […]
The cytotoxicity associated with chitin and chitosan was evaluated for both mouse embryonic fibroblast NIH/3T3 cells and mouse monocyte-macrophage RAW 264.7 cells. […]

[3] = 5 μl per well (1 mg/ml) coated, 48 hours

Molecule: CC(=O)N[C@H]1C(O)O[C@H](CO)[C@@H](O)[C@@H]1O (stereo partly shown) [NAGA, N-acetylglucosamine, reference compound]
- Nitrite Production ([1]; 10 μg/ml in culture medium): 66.7 ± 0.9 µM
- Nitrite Production as Percentage of Control ([1]; 10 μg/ml in culture medium): 102%
- Cytotoxicity (MTT) [2]: not cytotoxic

Molecule: N[C@H]1C(O)O[C@H](CO)[C@@H](O)[C@@H]1O (stereo partly shown) [glucosamine, reference compound]
- Nitrite Production ([1]; 10 μg/ml in culture medium): 64.3 ± 0.8 µM
- Nitrite Production as Percentage of Control ([1]; 10 μg/ml in culture medium): 98.0%
- Cytotoxicity (MTT) [2]: not cytotoxic

Molecule: CC(=O)N[C@H]1[C@H](O[C@H]2[C@H](O)[C@@H](NC(C)=O)C(O)O[C@@H]2CO)O[C@H](CO)[C@@H](O)[C@@H]1O (stereo partly drawn) [chitobiose, 2-acetamido-2-deoxy-4-O-(2-acetamido-2-deoxy-b-D-glucopyranosyl)-D-glucopyranose]
- Nitrite Production ([1]; 2 μg/ml in culture medium): 64.9 ± 0.8 µM
- Nitrite Production as Percentage of Control ([1]; 2 μg/ml in culture medium): 98.9%
- Nitrite Production ([1]; 10 μg/ml in culture medium): 64.1 ± 0.9 µM
- Nitrite Production as Percentage of Control ([1]; 10 μg/ml in culture medium): 97.7%

Molecule: CC(=O)N[C@@H]1[C@@H](O)[C@H](O[C@@H]2O[C@H](CO)[C@@H](O[C@@H]3O[C@H](CO)[C@@H](O[C@@H]4O[C@H](CO)[C@@H](O[C@@H]5O[C@H](CO)[C@@H](O)[C@H](O)[C@H]5NC(C)=O)[C@H](O)[C@H]4NC(C)=O)[C@H](O)[C@H]3NC(C)=O)[C@H](O)[C@H]2NC(C)=O)[C@@H](CO)O[C@H]1O [chitopentose]
- Nitrite Production ([1]; 2 μg/ml in culture medium): 47.0 ± 0.5 µM
- Nitrite Production as Percentage of Control ([1]; 2 μg/ml in culture medium): 70.6%
- Nitrite Production ([1]; 10 μg/ml in culture medium): 42.7 ± 1.2 µM
- Nitrite Production as Percentage of Control ([1]; 10 μg/ml in culture medium): 65.1%
- Effect on NO production, in words (Table 2) [1]: did substantially decrease NO production

Molecule: Collagen: collagen type I (rat tail, Sigma), coating comparison [reference compound]
- Nitrite Production [1, 3]: 73.4 ± 0.9 µM
- Nitrite Production as Percentage of Control [1, 3]: 99%
- Effect on NO production, in words (Table 1) ([1]; conditions of Table 1): did not significantly affect NO production

Molecule: CC(=O)N[C@H]1[C@H](O[C@H]2[C@H](O)[C@@H](NC(C)=O)C(O)O[C@@H]2CO)O[C@H](CO)[C@@H](O[C@@H]2O[C@H](CO)[C@@H](O)[C@H](O)[C@H]2NC(C)=O)[C@@H]1O (stereo partly shown) [chitotriose]
- Nitrite Production ([1]; 2 μg/ml in culture medium): 61.5 ± 0.9 µM
- Nitrite Production as Percentage of Control ([1]; 2 μg/ml in culture medium): 93.8%
- Nitrite Production ([1]; 10 μg/ml in culture medium): 61.1 ± 0.2 µM
- Nitrite Production as Percentage of Control ([1]; 10 μg/ml in culture medium): 93.1%

Molecule: chitotetraose
- Nitrite Production ([1]; 2 μg/ml in culture medium): 63.4 ± 0.5 µM
- Nitrite Production as Percentage of Control ([1]; 2 μg/ml in culture medium): 96.6%
- Nitrite Production ([1]; 10 μg/ml in culture medium): 61.3 ± 0.6 µM
- Nitrite Production as Percentage of Control ([1]; 10 μg/ml in culture medium): 93.4%

Molecule: CC(=O)N[C@H]1[C@H](O[C@H]2[C@H](O)[C@@H](NC(C)=O)[C@H](O[C@H]3[C@H](O)[C@@H](NC(C)=O)C(O)O[C@@H]3CO)O[C@@H]2CO)O[C@H](CO)[C@@H](O[C@@H]2O[C@H](CO)[C@@H](O[C@@H]3O[C@H](CO)[C@@H](O[C@@H]4O[C@H](CO)[C@@H](O)[C@H](O)[C@H]4NC(C)=O)[C@H](O)[C@H]3NC(C)=O)[C@H](O)[C@H]2NC(C)=O)[C@@H]1O (stereo partly shown) [chitohexose]
- Nitrite Production ([1]; 2 μg/ml in culture medium): 41.3 ± 0.8 µM
- Nitrite Production as Percentage of Control ([1]; 2 μg/ml in culture medium): 63%
- Nitrite Production ([1]; 10 μg/ml in culture medium): 35.8 ± 2.9 µM
- Nitrite Production as Percentage of Control ([1]; 10 μg/ml in culture medium): 54.5%
- Effect on NO production, in words (Table 2) [1]: did substantially decrease NO production

Source: patent US6653294B2, “Use of chitinous materials for inhibiting cellular nitric oxide production” (Food Industry Research & Development Institute, priority 2000, dated 2003)
